Columns and labels:
[1] = test system: winter wheat; assay: Test E winter wheat; type: in vivo, Triticum aestivum; settings: Preemergence; for Wheat (winter) plant response rating (0 to 100 scale): Rate 250 g/ha
[2] = test system: winter barley; assay: Test E winter barley; type: in vivo, Hordeum vulgare; settings: Preemergence; for Barley (winter) plant response rating (0 to 100 scale): Rate 250 g/ha
[3] = test system: green foxtail; assay: Test E green foxtail; type: in vivo, Setaria viridis; settings: Preemergence; for Green foxtail plant response rating (0 to 100 scale): Rate 250 g/ha
[4] = test system: wheat; assay: Test B pre/postemergence wheat; type: in vivo, Triticum aestivum
In short: (§1)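 Herbicidal effect was estimated by eye on a ten-point control scale after plants spent twelve to sixteen days in a greenhouse following soil or foliar treatment. Foliar sprays targeted plants at one to four leaves; all doses were formulated in a non-phytotoxic solvent with surfactant.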

[5] = test system: blackgrass; assay: Test B pre/postemergence blackgrass; type: in vivo, Alopecurus myosuroides; settings: for Blackgrass plant response rating (0 to 10 scale): 0 is no effect
In short: as §1

[6] = test system: Italian ryegrass; assay: Test E Italian ryegrass; type: in vivo, Lolium multiflorum; settings: Preemergence; for I. Ryegrass plant response rating (0 to 100 scale): Rate 250 g/ha
[7] = test system: winter wheat; assay: Test E winter wheat; type: in vivo, Triticum aestivum; settings: Postemergence; for Wheat (winter) plant response rating: Rate 250 g/ha
In short: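 Each compound, carried in a non-phytotoxic solvent blend including surfactant, was applied (postemergence: over the top of young plants at 1- to 4-leaf stage). Plants stayed in the greenhouse about 21 to 28 days before visual comparison with untreated controls.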

[8] = test system: wild oat; assay: Test E wild oat; type: in vivo, Avena fatua; settings: Preemergence; for Wild oat plant response rating (0 to 100 scale): Rate 250 g/ha
[9] = test system: purple nutsedge; assay: Test B pre/postemergence purple nutsedge; type: in vivo, Cyperus rotundus
In short: as §1

[10] = test system: blackgrass; assay: Test E blackgrass; type: in vivo, Alopecurus myosuroides; settings: Preemergence; for Blackgrass plant response rating (0 to 100 scale): Rate 250 g/ha
[11] = test system: giant foxtail; assay: Test B pre/postemergence giant foxtail; type: in vivo, Setaria faberii; settings: for Giant foxtail plant response rating (0 to 10 scale): 0 is no effect
In short: as §1

[12] = Rate 500 g/ha, 0 to 100 scale where 0 is no effect and 100 is complete control
[13] = Rate 1000 g/ha, 0 to 100 scale where 0 is no effect and 100 is complete control
[14] = Preemergence, Rate 62 g/ha, scale of 0 to 10 where 0 is no effect and 10 is complete control
[15] = Preemergence, Rate 250 g/ha, scale 0 to 10, 0 is no effect, 10 is complete control
[16] = Preemergence, Rate 500 g/ha, scale of 0 to 10 where 0 is no effect and 10 is complete control
[17] = Rate 62 g/ha, Postemergence, scale of 0 to 10 where 0 is no effect and 10 is complete control
[18] = Rate 125 g/ha, Postemergence, scale 0 to 10
[19] = Preemergence, Rate 125 g/ha, 10 is complete control
[20] = Rate 500 g/ha, Postemergence, scale 0 to 10
[21] = Rate 1000 g/ha, 0 to 100 scale, 0 is no effect and 100 is complete control
[22] = Rate 500 g/ha, 0 to 100 scale, 0 is no effect, 100 is complete control
[23] = Rate 500 g/ha, 0 to 100 scale (0 no effect, 100 complete control)
[24] = Rate 1000 g/ha, 0 to 100 scale, 0 no effect, 100 complete control
[25] = Postemergence, Rate 31 g/ha, visual rating, scale 0 to 10 (0 no effect, 10 complete control)
[26] = Preemergence, Rate 31 g/ha, visual rating, scale 0 to 10 (0 no effect, 10 complete control)
[27] = Rate 16 g/ha, Postemergence, scale 0 to 10, 0 no effect, 10 complete control
[28] = Rate 16 g/ha, Preemergence, scale 0 to 10, 0 no effect, 10 complete control
[29] = Rate 62 g/ha, Postemergence, scale 0 to 10 (0 no effect, 10 complete control)
[30] = Rate 125 g/ha, Postemergence, scale of 0 to 10 where 0 is no effect and 10 is complete control
[31] = Rate 125 g/ha, Preemergence, scale of 0 to 10 where 0 is no effect and 10 is complete control
[32] = 0 to 100 scale where 0 is no effect and 100 is complete control
[33] = Preemergence, Rate 125 g/ha, 0 is no effect, 10 is complete control
[34] = Preemergence, Rate 500 g/ha, scale 0 to 10 (0 no effect, 10 complete control)
[35] = Rate 250 g/ha, Postemergence, scale 0 to 10, 0 is no effect, 10 is complete control
[36] = Postemergence, Rate 125 g/ha, scale of 0 to 10 where 0 is no effect and 10 is complete control

CC(C)N(C(=O)n1oc(=O)n(-c2ccc(OC(F)(F)F)cc2)c1=O)c1ccc(F)cc1 [Compound 202]
Wheat (winter) plant response rating (0 to 100 scale) [1]: 50 | Plant response rating, Wheat (winter) [1, 12]: 40 | Plant response rating, Wheat (winter) [1, 13]: 70 | Barley (winter) plant response rating (0 to 100 scale) [2]: 20 | Plant response rating, Barley (winter) [2, 12]: 40 | Plant response rating, Barley (winter) [2, 13]: 70 | Green foxtail plant response rating (0 to 100 scale) [3]: 70 | Plant response rating, Green foxtail [3, 12]: 85 | Plant response rating, Green foxtail [3, 13]: 100 | Wheat plant response rating [4, 14]: 0 | Wheat plant response rating [4, 15]: 0 | Plant response rating, Wheat [4, 16]: 2 | Wheat plant response rating [4, 17]: 0 | Wheat plant response rating [4, 18]: 0 | Plant response rating (0 to 10; 0 is no effect, 10 is complete control), Wheat ([4]; Rate 250 g/ha, Postemergence): 0 | Blackgrass plant response rating [5, 14]: 0 | Blackgrass plant response rating (0 to 10 scale) [5, 19]: 0 | Blackgrass plant response rating [5, 15]: 5 | Plant response rating, Blackgrass [5, 16]: 2 | Blackgrass plant response rating [5, 17]: 0 | Blackgrass plant response rating [5, 18]: 3 | Plant response rating (0 to 10; 0 is no effect, 10 is complete control), Blackgrass ([5]; Rate 250 g/ha, Postemergence): 5 | Blackgrass plant response rating [5, 20]: 6 | I. Ryegrass plant response rating (0 to 100 scale) [6]: 30 | Plant response rating, I. Ryegrass [6, 12]: 60 | Plant response rating, I. Ryegrass [6, 13]: 60 | Plant response rating, Wheat (winter) [7, 21]: 60 | Plant response rating, Wheat (winter) [7, 22]: 55 | Wild oat plant response rating (0 to 100 scale) [8]: 50 | Plant response rating, Wild oat [8, 12]: 60 | Plant response rating, Wild oat [8, 13]: 80 | Nutsedge plant response rating [9, 14]: 0 | Nutsedge plant response rating [9, 17]: 0 | Nutsedge plant response rating [9, 18]: 0 | Plant response rating (0 to 10; 0 is no effect, 10 is complete control), Nutsedge ([9]; Rate 250 g/ha, Postemergence): 0 | Nutsedge plant response rating [9, 20]: 0 | Blackgrass plant response rating (0 to 100 scale) [10]: 30 | Plant response rating, Blackgrass [10, 12]: 50 | Plant response rating, Blackgrass [10, 13]: 30 | Giant foxtail plant response rating [11, 14]: 2 | Giant foxtail plant response rating (0 to 10 scale) [11, 19]: 6 | Giant foxtail plant response rating [11, 15]: 7 | Plant response rating, Giant foxtail [11, 16]: 10 | Giant foxtail plant response rating [11, 17]: 0 | Giant foxtail plant response rating [11, 18]: 0 | Plant response rating (0 to 10; 0 is no effect, 10 is complete control), Giant foxtail ([11]; Rate 250 g/ha, Postemergence): 0 | Giant foxtail plant response rating [11, 20]: 2

CCCCCn1c(=O)on(C(=O)N(c2ccc(F)cc2)C(C)C)c1=O [Compound 290]
Wheat (winter) plant response rating (0 to 100 scale) [1]: 10 | Plant response rating, Wheat (winter) [1, 23]: 30 | Plant response rating, Wheat (winter) [1, 24]: 50 | Barley (winter) plant response rating (0 to 100 scale) [2]: 55 | Plant response rating, Barley (winter) [2, 23]: 60 | Plant response rating, Barley (winter) [2, 24]: 70 | Green foxtail plant response rating (0 to 100 scale) [3]: 65 | Plant response rating, Green foxtail [3, 23]: 70 | Plant response rating, Green foxtail [3, 24]: 85 | Wheat plant response rating [4, 25]: 0 | Wheat plant response rating [4, 26]: 0 | Wheat plant response rating [4, 14]: 0 | Wheat plant response rating [4, 27]: 0 | Wheat plant response rating [4, 28]: 0 | Wheat plant response rating [4, 29]: 0 | Wheat plant response rating [4, 30]: 0 | Wheat plant response rating [4, 31]: 0 | Blackgrass plant response rating [5, 25]: 0 | Blackgrass plant response rating [5, 26]: 0 | Blackgrass plant response rating [5, 14]: 2 | Blackgrass plant response rating [5, 27]: 0 | Blackgrass plant response rating [5, 28]: 0 | Blackgrass plant response rating [5, 29]: 0 | Blackgrass plant response rating [5, 30]: 0 | Blackgrass plant response rating [5, 31]: 2 | I. Ryegrass plant response rating (0 to 100 scale) [6]: 60 | Plant response rating, I. Ryegrass [6, 23]: 70 | Plant response rating, I. Ryegrass [6, 24]: 90 | Plant response rating, Wheat (winter) [7, 13]: 70 | Wheat (winter) plant response rating [7, 32]: 50 | Plant response rating, Wheat (winter) [7, 22]: 60 | Wild oat plant response rating (0 to 100 scale) [8]: 60 | Plant response rating, Wild oat [8, 23]: 70 | Plant response rating, Wild oat [8, 24]: 70 | Nutsedge plant response rating [9, 25]: 0 | Nutsedge plant response rating [9, 26]: 0 | Nutsedge plant response rating [9, 14]: 0 | Nutsedge plant response rating [9, 27]: 0 | Nutsedge plant response rating [9, 28]: 0 | Nutsedge plant response rating [9, 29]: 0 | Nutsedge plant response rating [9, 30]: 0 | Blackgrass plant response rating (0 to 100 scale) [10]: 60 | Plant response rating, Blackgrass [10, 23]: 70 | Plant response rating, Blackgrass [10, 24]: 95 | Giant foxtail plant response rating [11, 25]: 0 | Giant foxtail plant response rating [11, 26]: 2 | Giant foxtail plant response rating [11, 14]: 8 | Giant foxtail plant response rating [11, 27]: 0 | Giant foxtail plant response rating [11, 28]: 2 | Giant foxtail plant response rating [11, 29]: 0 | Giant foxtail plant response rating [11, 30]: 0 | Giant foxtail plant response rating [11, 31]: 9

CC(C)N(Cc1ccccc1)C(=O)n1oc(=O)n(C(C)C)c1=O [Compound 165]
Wheat (winter) plant response rating (0 to 100 scale) [1]: 40 | Plant response rating, Wheat (winter) [1, 12]: 50 | Plant response rating, Wheat (winter) [1, 13]: 70 | Barley (winter) plant response rating (0 to 100 scale) [2]: 20 | Plant response rating, Barley (winter) [2, 12]: 55 | Plant response rating, Barley (winter) [2, 13]: 50 | Green foxtail plant response rating (0 to 100 scale) [3]: 50 | Plant response rating, Green foxtail [3, 12]: 55 | Plant response rating, Green foxtail [3, 13]: 65 | Wheat plant response rating [4, 14]: 0 | Wheat plant response rating (0 to 10 scale) [4, 33]: 0 | Wheat plant response rating [4, 15]: 0 | Wheat plant response rating [4, 34]: 2 | Plant response rating, Wheat [4, 35]: 2 | Wheat plant response rating [4, 20]: 3 | Blackgrass plant response rating [5, 36]: 3 | Blackgrass plant response rating [5, 14]: 0 | Blackgrass plant response rating (0 to 10 scale) [5, 19]: 3 | Blackgrass plant response rating [5, 15]: 6 | Blackgrass plant response rating [5, 34]: 8 | Blackgrass plant response rating [5, 17]: 0 | Plant response rating, Blackgrass [5, 35]: 7 | Blackgrass plant response rating [5, 20]: 8 | I. Ryegrass plant response rating (0 to 100 scale) [6]: 60 | Plant response rating, I. Ryegrass [6, 12]: 55 | Plant response rating, I. Ryegrass [6, 13]: 70 | Plant response rating, Wheat (winter) [7, 21]: 85 | Plant response rating, Wheat (winter) ([7]; Rate 500 g/ha, 0 to 100 scale, 0 no effect, 100 complete control): 65 | Wheat (winter) plant response rating [7, 32]: 40 | Wild oat plant response rating (0 to 100 scale) [8]: 55 | Plant response rating, Wild oat [8, 12]: 60 | Plant response rating, Wild oat [8, 13]: 70 | Nutsedge plant response rating [9, 36]: 0 | Nutsedge plant response rating [9, 14]: 0 | Nutsedge plant response rating (0 to 10 scale) [9, 33]: 0 | Nutsedge plant response rating [9, 15]: 0 | Nutsedge plant response rating [9, 34]: 0 | Nutsedge plant response rating [9, 17]: 0 | Plant response rating, Nutsedge [9, 35]: 0 | Nutsedge plant response rating [9, 20]: 0 | Blackgrass plant response rating (0 to 100 scale) [10]: 40 | Plant response rating, Blackgrass [10, 12]: 60 | Plant response rating, Blackgrass [10, 13]: 100 | Giant foxtail plant response rating [11, 36]: 1 | Giant foxtail plant response rating [11, 14]: 6 | Giant foxtail plant response rating (0 to 10 scale) [11, 19]: 7 | Giant foxtail plant response rating [11, 15]: 8 | Giant foxtail plant response rating [11, 34]: 9 | Giant foxtail plant response rating [11, 17]: 0 | Plant response rating, Giant foxtail [11, 35]: 5 | Giant foxtail plant response rating [11, 20]: 8

From patent US6737383B1, “Herbicidal oxadiazolidines” (priority 1999, dated 2004)
